The source of these data is PubChem BioAssay AID686920 (Broad Institute, 2013).

The assay has as its system A673 NR0B1-luciferase reporter, viability-normalised luminescence. Put plainly: NR0B1 reporter signal reduction in A673 cells – cell-based, luciferase luminescence, cherry-pick, EWS/Fli inhibitor project, dose response (AID 686920).

Several values for one entry are separate records, joined by “and”; a condition that tells them apart may be missing. Equal values may be shown once.

As to `Cc1ccc(C(C)C)c(OCc2ccc(C(=O)N/N=C/c3ccc(O)cc3O)cc2)c1`, the AC35 was 1.46 µM.

On to `O=C1c2ccccc2C(=O)N1CCCCNc1ccccc1`, for which the AC35 is 3.44 µM.

`O=C(Nc1ccc2c(c1)OCO2)N1C[C@@H]2N[C@H](C1)C2c1ccc(C=Cc2ccccc2)cc1` (some centres not stated): the AC35 is 19 µM.

For `Cc1ccc(OCCNC(=O)c2cccc(S(=O)(=O)NCc3ccccc3)c2)cc1`, the AC35 was 3.98 µM.

With `COC(=O)c1ccccc1-c1c2ccc(=N)cc-2oc2cc(N)ccc12`, the AC35 is 2.83 µM.

On to `CC(C)(C)C(=O)Nc1ccc(N=Nc2ccccc2)cc1`, for which the AC35 is 10.7 µM.

Turning to `NC(Cc1ccc(C(F)(F)F)cc1)c1csc(NC(=O)Nc2ccccc2Cc2ccccc2)n1` (configuration not stated), the AC35 was 17.6 µM.

For the molecule `Oc1[nH]c2ccc(Br)cc2c1N=NC(=S)N1CCOCC1`, the AC35 is 26.5 µM.

`CC(C)CC(NC(=O)c1cccs1)c1nnc(SCc2ccc(Cl)c(Cl)c2)n1C` (configuration not stated): the AC35 is 39.5 µM.

Regarding `COC1C(O)C(C)OC(OC2C(Oc3cccc4c(O)c5c(=O)oc6ccc(C)c7c(=O)oc(c34)c5c67)OC(C)C(O)C2O)C1O` (configuration not stated), the AC35 was 4.49 µM.

As for `C/C(=C\c1ccccc1)C(=O)N1CCC=CC1=O`, the AC35 was 10.3 µM.

Turning to `C[C@H](CO)N1C[C@H](C)[C@H](CN(C)Cc2ccc(C(=O)Nc3ccccc3N)cc2)Oc2ccc(N(C)C)cc2C1=O`, the AC35 is 11.7 µM.

Consider `C[C@@H]1CN([C@H](C)CO)C(=O)c2cc(NS(=O)(=O)c3ccc(Cl)cc3)ccc2O[C@@H]1CN(C)Cc1ccc(Cl)c(Cl)c1`, for which the AC35 is 29.1 µM.

As to `COC(=O)COc1ccc(-c2nccc(-c3ccccn3)n2)cc1`, the AC35 is 1.5 µM.

For the molecule `CN1C(=O)c2cc(NC(=O)c3ccc(Cl)cc3)ccc2OC[C@@H]2O[C@@H](CC(=O)NCc3cccc(F)c3)CC[C@H]21`, the AC35 is 7.86 µM.

Take `CCOc1cc2[nH]c(=S)n(Cc3ccc(C(=O)NCCN(CC)CC)cc3)c(=O)c2cc1OCC`: the AC35 is 31.1 µM.

In the case of `CCOc1ccc2nc(NC3=NC(c4ccc(OC)cc4)CC(=O)N3)nc(C)c2c1` (configuration not stated), the AC35 was 9.3 µM.

With `CNC[C@H](CC1CCCCC1)NC[C@H](CO)NCCc1cccc(C(F)(F)F)c1`, the AC35 was 13.7 µM.

In the case of `COc1ccc(-c2sc3ccccc3c2-c2ccc(OCCN3CCCCC3)cc2)cc1`, the AC35 is 7.87 µM.

In the case of `C[C@@H]1CN([C@H](C)CO)C(=O)Cc2cc(NC(=O)CCCCCC(=O)Nc3ccccc3N)ccc2O[C@@H]1CN(C)CC1CCCCC1`, the AC35 is 7.74 µM.

Turning to `C[C@@H]1CN([C@H](C)CO)C(=O)c2cc(NC(=O)CCCCCC(=O)Nc3ccccc3N)ccc2O[C@H]1CN(C)S(=O)(=O)c1ccc(Cl)cc1`, the AC35 is 35.2 µM.

Turning to `COc1ccc(Cl)cc1S(=O)(=O)Nc1ccc2c(c1)n(C)c(=O)n2C`, the AC35 was 31.3 µM.

On to `O=C1C(=O)N(CCS(=O)(=O)c2ccccc2)c2ccc(Cl)cc21`, for which the AC35 was 12.2 µM.

As for `C[C@@H]1CN([C@@H](C)CO)C(=O)Cc2cc(NC(=O)C3CCCCC3)ccc2O[C@H]1CN(C)Cc1ccc(C(=O)Nc2ccccc2N)cc1`, the AC35 is 29.1 µM.

Take `Nc1ccc(Oc2ccccc2-c2ccccc2)cc1`: the AC35 is 2.49 µM.

Turning to `CC(C)N1C/C(=C/c2ccsc2)C(=O)/C(=C/c2ccsc2)C1`, the AC35 was 5.52 µM.

In the case of `CN(Cc1cnc2nc(N)nc(N)c2n1)c1ccc(C(=O)N[C@@H](CCC(=O)O)C(=O)O)cc1`, the AC35 is under 0.03 µM.

`CCN(CC)C(=O)CN1C(=O)C(=O)c2ccccc21`: the AC35 is 42 µM.

With `O=C(C1CC1)N1C[C@@H]2N[C@H](C1)C2c1ccc(/C=C/c2ccccc2)cc1` (some centres not stated), the AC35 is 26.1 µM.

On to `COc1ccc2oc(C(=O)NCCc3ccccc3)c(C)c2c1`, for which the AC35 was 6.25 µM.

For `C[C@H]1CN([C@@H](C)CO)C(=O)c2cc(N(C)C)ccc2O[C@H]1CN(C)Cc1ccc(C(=O)Nc2ccccc2N)cc1`, the AC35 is 15 µM.

As to `C[C@@H]1CN([C@H](C)CO)S(=O)(=O)c2ccc(C#Cc3ccncc3)cc2O[C@@H]1CN(C)C(=O)Nc1ccc2c(c1)OCO2`, the AC35 was 24.5 µM.

As to `CCOc1ccc(/C=C2\CCc3ccccc3C2=O)cc1`, the AC35 is 9.24 µM.

As to `Cc1ccc2c(c1)C(=O)N1[C@H]3c4cc(Br)ccc4OC[C@@H]3[C@H](c3ccccc3)[C@]1(C)C(=O)N2`, the AC35 was 13.7 µM.

With `O=C(O)c1cccc(N/N=C/c2cccs2)c1`, the AC35 was 1.25 µM.

Consider `COc1ccc(N=C(NN)c2ccc3ccccc3n2)cc1`, for which the AC35 was 21.8 µM.

In the case of `COC(=O)Cc1[nH]n(-c2nc3ccccc3s2)c(=O)c1C(C)=Nc1ccc(C)cc1`, the AC35 is 0.17 µM.

`C[C@H]1CN([C@@H](C)CO)S(=O)(=O)c2ccc(C#CC(C)(C)O)cc2O[C@@H]1CN(C)Cc1ccc(-c2ccccc2)cc1`: the AC35 is 1.09 µM.

`COC(=O)C1=C(C)N(Cc2cccc(C(F)(F)F)c2)C(=NCc2ccc(OC)cc2)NC1c1cccc(F)c1` (configuration not stated): the AC35 was 13.2 µM.

For `CO[C@H]1CN(C)C(=O)c2cc(NC(=O)c3ccc(Oc4ccccc4)cc3)ccc2OC[C@H](C)NC[C@@H]1C`, the AC35 was 26.5 µM.

For `COc1ccc(S(=O)(=O)Nc2ccc3c(c2)C(=O)N([C@H](C)CO)C[C@@H](C)[C@@H](CN(C)CC2CCCCC2)OCCCC[C@H](C)O3)cc1`, the AC35 is 14.2 µM.

In the case of `Cc1nn(-c2ccc(F)cc2)c2nc(N)c(C#N)c(-c3ccc(O)c(O)c3)c12`, the AC35 is 22.2 µM.

Take `CC(C)c1oc(=O)cc2c1[C@@H](O)[C@H]1OC(=O)[C@@]3(C)CC[C@@H](O)[C@@]2(C)C13` (some centres not stated): the AC35 is 4.21 µM.

Turning to `O=C(CCc1ccccc1)NC(c1cccs1)c1cc(Cl)c2cccnc2c1O` (configuration not stated), the AC35 is 5.42 µM.

As to `CC(=O)ON=C1C=CC(=C(C#N)c2ccccc2)C=C1`, the AC35 was 13.3 µM.

Turning to `C[C@H](CO)N1C[C@H](C)[C@H](CN(C)CC2CCCCC2)Oc2ccc(NC(=O)CCCCCC(=O)Nc3ccccc3N)cc2CC1=O`, the AC35 was 4.96 µM.

With `C(=NNc1ccc2ccccc2n1)c1ccccn1`, the AC35 was 1.55 µM.

On to `COc1ccccc1C(CCNCc1ccc(N(C)C)cc1)c1ccc(OC(C)C)cc1` (configuration not stated), for which the AC35 is 24.9 µM.

`O=C(O)CN1C(=O)/C(=C\c2ccccc2OCc2ccc(Cl)cc2Cl)SC1=S`: the AC35 is 13.7 µM.

As to `COc1ccc(/C=N/Nc2ccc(C(=O)O)cc2)cc1Br`, the AC35 was 3.93 µM.

For the molecule `Cc1ccc(S(=O)(=O)Nc2ccc3c(c2)C(=O)N([C@@H](C)CO)C[C@@H](C)[C@H](CN(C)Cc2ccc(C(F)(F)F)cc2)OCCCC[C@H](C)O3)cc1`, the AC35 was 7.44 µM.

Turning to `Cc1[nH][nH]c(=O)c1C(c1c(C)[nH][nH]c1=O)c1cn(Cc2ccc(Cl)c(Cl)c2)c2ccccc12`, the AC35 was 4.99 µM.

In the case of `Cc1ccsc1C(=O)OCC(=O)c1cc(C)n(C)c1C`, the AC35 is 6.2 µM.

Turning to `O=C1C(=O)N(Cc2cccs2)c2ccccc21`, the AC35 is 17 µM.

In the case of `COc1cccc(Sc2ccccc2/C=N/NC(N)=O)c1`, the AC35 was 2.17 µM.

`CN(C[C@H]1N[C@@H](CO)[C@@H]1c1ccc(C2=CCCC2)cc1)C(=O)c1cccc(F)c1`: the AC35 was 3.48 µM.

For `COc1cccc(O)c1CN1CCC(C(=O)Nc2ccc(-c3cccc(C)c3)cc2)CC1`, the AC35 was 29.1 µM.

Take `CC(C)c1ccc(OCc2cccc(C(=O)N/N=C/c3cccnc3)c2)cc1`: the AC35 is 1.03 µM.

For the molecule `CCCCNC(=O)C(c1ccc(OCC(=O)OC)c(C(=O)OC)c1)N(CCOC)C(=O)CCCCCN1C(=O)NC(c2ccc(-c3ccccc3)cc2)C(C(=O)OCc2ccccc2)=C1C` (configuration not stated), the AC35 was 40.4 µM.

For `CC12CCC3C(CCC4(O)CC(O)CCC34C=NO)C1(O)CCC2C1=COC(=O)C1` (configuration not stated), the AC35 was 0.293 µM.

Regarding `C[C@H](O)C#Cc1ccc2c(c1)O[C@@H](CN(C)Cc1ccc(-c3ccccc3)cc1)[C@H](C)CN([C@@H](C)CO)S2(=O)=O`, the AC35 is 6.15 µM and 8.6 µM.

In the case of `Cc1cccc(N2CCN(C3C(=O)Nc4ccccc4-n4nnnc43)CC2)c1C` (configuration not stated), the AC35 was 9.29 µM.

For the molecule `Cc1nc(N)nc(N)c1CCCc1ccc(Cl)c(Cl)c1`, the AC35 is 2.49 µM.

In the case of `COc1ccc(S(=O)(=O)N2CC[C@@H]3[C@H](CO)Nc4ccc(-c5ccc(C#N)cc5)cc4[C@@H]32)cc1`, the AC35 is 4.3 µM.

Regarding `CN=c1scc(-c2cccs2)n1/N=C/c1ccccc1O`, the AC35 is 0.298 µM.

Consider `C[C@H](CO)N1C[C@H](C)[C@H](CN(C)Cc2ccccc2)Oc2ccc(NC(=O)CCCCCC(=O)Nc3ccccc3N)cc2CC1=O`, for which the AC35 was 5.93 µM.

Regarding `COC(=O)C[C@@H]1CC[C@@H]2[C@H](COc3ccc(NC(=O)c4ccc(F)c(F)c4)cc3C(=O)N2C)O1`, the AC35 was 64.7 µM.

For the molecule `O=S(=O)(c1ccc(F)cc1)N1C[C@H]2[C@@H](c3ccccc31)[C@H](CO)N2Cc1ccccc1Cl`, the AC35 was 33.7 µM.

In the case of `Cc1ccc(C(C(=O)NCc2ccco2)N(C(=O)CNC(=O)c2cccs2)c2c(C)cc(C)cc2C)cc1` (configuration not stated), the AC35 is 42 µM.

On to `C[C@H](CO)N1C[C@H](C)[C@H](CN(C)CC2CCCCC2)Oc2ccc(NC(=O)Nc3cccc4ccccc34)cc2C1=O`, for which the AC35 is 43.3 µM.

In the case of `O=C(N/N=C/c1cccs1)c1n[nH]c2c1CCCC2`, the AC35 is 4.03 µM.

On to `C[C@H]1O[C@@H](O[C@H]2[C@@H](O)C[C@H](O[C@H]3[C@@H](O)C[C@H](O[C@H]4CC[C@@]5(C)[C@H](CC[C@@H]6[C@@H]5C[C@@H](O)[C@]5(C)[C@@H](C7=CC(=O)OC7)CC[C@]65O)C4)O[C@@H]3C)O[C@@H]2C)C[C@H](O)[C@@H]1O`, for which the AC35 was 0.0886 µM.

For `Cc1ccc(S(=O)(=O)Nc2ccc3c(c2)C(=O)N([C@@H](C)CO)C[C@@H](C)[C@@H](CN(C)Cc2ccc(C(=O)Nc4ccccc4N)cc2)O3)cc1`, the AC35 was 6.44 µM.

Consider `Nc1cc2c(cc1Br)[nH]c(=O)c1ccccc12`, for which the AC35 is 43.3 µM.

With `CC(C)(C)c1ccc(Cn2c(=O)cnc3ccccc32)cc1`, the AC35 was 13.2 µM.

In the case of `COC(=O)C[C@@H]1CC[C@@H]2[C@H](COc3ccc(NC(=O)c4cc(C)on4)cc3C(=O)N2C)O1`, the AC35 is 7 µM.

With `COc1ccc(-c2cnc3c(NC=O)cc(-c4ccccc4OC)cn23)cc1OC`, the AC35 is 0.065 µM.

As for `CCCCCCCCNC(C)C(O)c1ccc(SC(C)C)cc1` (configuration not stated), the AC35 was 9.79 µM.

For the molecule `Cc1cc(C)c2sc(NNC(=O)c3ccc(S(=O)(=O)N4CCc5ccccc5C4)cc3)nc2c1`, the AC35 is 5.12 µM.

For `Cc1csc(NC(=O)CCc2c(C)nc3cc(-c4ccc(Cl)cc4)nn3c2C)n1`, the AC35 is 0.284 µM.

As for `C=C(C(=O)c1ccccc1)C(C(=C)C(=O)c1ccccc1)c1ccc(OC)cc1`, the AC35 was 4.37 µM.

For `CCCCc1c(Cc2ccccc2)ncn1CCc1ccccc1OC`, the AC35 was 20.8 µM.
